Reference: patent US4657916A, “Quinoline-N-oxide derivative and pharmaceutical composition” (Kyowa Hakko Kogyo Co., Ltd., priority 1984, dated 1987)
Structures can show the parent of a compound that is named as a salt.

Biological target: T1, 5-lipoxygenase (Rattus norvegicus, UniProt P12527)
T1 construct: (RBL-1, ATCC NO. CRL 1378) cells of rats were used as a 5-lipoxygenase enzyme source; endogenous in cells; host or cells: RBL-1 (rat basophilic leukemia) cells, ATCC CRL 1378
T1 sequence (P12527 1-673): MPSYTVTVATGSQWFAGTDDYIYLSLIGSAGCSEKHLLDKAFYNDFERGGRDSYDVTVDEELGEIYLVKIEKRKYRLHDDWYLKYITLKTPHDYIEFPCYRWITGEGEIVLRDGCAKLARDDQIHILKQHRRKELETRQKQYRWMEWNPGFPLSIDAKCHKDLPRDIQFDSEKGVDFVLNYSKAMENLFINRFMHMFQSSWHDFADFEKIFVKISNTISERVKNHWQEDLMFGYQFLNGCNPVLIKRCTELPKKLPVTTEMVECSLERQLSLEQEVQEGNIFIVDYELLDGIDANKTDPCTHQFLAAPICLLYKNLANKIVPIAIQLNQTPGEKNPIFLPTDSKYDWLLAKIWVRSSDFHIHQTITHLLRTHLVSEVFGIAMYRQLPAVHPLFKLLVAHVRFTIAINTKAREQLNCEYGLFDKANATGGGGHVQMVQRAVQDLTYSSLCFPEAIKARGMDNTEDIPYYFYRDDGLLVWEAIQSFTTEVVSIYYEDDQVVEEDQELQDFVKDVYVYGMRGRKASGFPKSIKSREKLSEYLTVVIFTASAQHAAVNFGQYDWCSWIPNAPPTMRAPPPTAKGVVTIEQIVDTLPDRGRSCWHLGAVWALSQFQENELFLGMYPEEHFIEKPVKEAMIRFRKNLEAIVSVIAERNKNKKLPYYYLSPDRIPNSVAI
Assay: Inhibiting action on leukocyte 5-lipoxygenase in vitro (RBL-1 cells as enzyme source, 14C-arachidonic acid)
Assay type: biochemical, rats
Details: RBL-1 rat cells, 37° C., 5 minutes; for inhibition at 1 µM: 1 μM compound, read-out: 5-lipoxygenase-inhibiting activity: Percent inhibition at 1 μM compound concentration
Description: Inhibiting actions of test compounds shown in Table 2 on lipoxygenase in vitro were determined according to the following procedure.
Procedure for determining inhibiting actions on leukocyte 5-lipoxygenase:
Determination was conducted according to the modified B. A. Jakschik et al procedure [Biochim. Biophys. Res. Commun. 95, 103 (1980)]. That is, Leukemic basophilic granulocyte (RBL-1, ATCC NO. CRL 1378) cells of rats were used as a 5-lipoxygenase enzyme source, and the cells and a test compound were contacted with each other in a 0.07 M tris hydrochloric acid buffer solution in the presence of 0.7 μm moles of calcium chloride at 37° C. for 5 minutes, and then 20 μmoles of [^14 C]-arachidonic acid was added thereto. The mixture was subjected to reaction at 37° C. for 5 minutes. The reaction product was extracted with ethyl acetate/methanol/0.2 M citric acid (30/4/1) and the extract was subjected to a thin layer chromatographic separation (developing solvent: petroleum ether/ethyl ether/acetic acid=50/50/1), and the spot of […] in the product was scraped off and ^14 C was measured by a liquid scintillation counter.

inhibition at 1 µM | IC50 | Compound
7.7% | – | [O-][n+]1c(CCCCCCCCCCCO)cc(OCc2ccccc2)c2ccccc21 [1-(2), 4-benzyloxy-2-(11-hydroxyundecyl) quinoline-N-oxide]
2.7% | – | [O-][n+]1c(CCCO)cc(OCc2ccccc2)c2ccccc21 [Example 2, 4-benzyloxy-2-(3-hydroxypropyl) quinoline-N-oxide]
20% | – | [O-][n+]1c(CCCCCCCCCCCOC2CCCCO2)cc(OCc2ccccc2)c2ccccc21 (stereo not shown) [Example 6, 4-benzyloxy-2-[11-(2-tetrahydropyranyloxy)undecyl] quinoline-N-oxide]
33.1% | – | O=CCCCCCCCCCCc1cc(OCc2ccccc2)c2ccccc2[n+]1[O-] [Example 7, 4-benzyloxy-2-(10-formyldecyl) quinoline-N-oxide]
27.3% | – | O=C(O)CCCCCCCCCCc1cc(OCc2ccccc2)c2ccccc2[n+]1[O-] [Example 8, 4-benzyloxy-2-(10-carboxydecyl) quinoline-N-oxide]
27% | – | NCCCCCCCCCCCc1cc(OCc2ccccc2)c2ccccc2[n+]1[O-] [Example 9, 4-benzyloxy-2-(11-aminoundecyl) quinoline-N-oxide]
32.4% | – | [O-][n+]1c(CCCCCCCCCCCNCc2ccccc2)cc(OCc2ccccc2)c2ccccc21 [Example 10, 4-benzyloxy-2-[11-(N-benzylaminoundecyl)] quinoline-N-oxide]
36.6% | – | [O-][n+]1c(CCCCCCCCCCC=NO)cc(OCc2ccccc2)c2ccccc21 [Example 11]
37.2% | – | COC(CCCCCCCCCCc1cc(OCc2ccccc2)c2ccccc2[n+]1[O-])OC [Example 12, 4-benzyloxy-2-(11,11-dimethoxyundecyl) quinoline-N-oxide]
– | 270 nM | [O-][n+]1c(CCCCCCCCCCCNCc2ccccc2)cc(O)c2ccccc21 [Example 17, 4-hydroxy-2-[11-(N benzylaminoundecyl)] quinoline-Noxide]
– | 1700 nM | O=CCCCCCCCCCCc1cc(O)c2ccccc2[n+]1[O-] [Example 20, 4-hydroxy-2-(10-formyldecyl) quinoline-Noxide]

The remaining lines, values behind:

Compound | inhibition at 1 µM | IC50
[O-][n+]1c(CCCCCCCCCCCO)cc(O)c2ccccc21 [Example 3, 4-hydroxy-2-(11-hydroxyundecyl) quinoline-N-oxide] | – | 280 nM
[O-][n+]1c(CCCOC2CCCCO2)cc(O)c2ccccc21 (stereo not shown) [Example 4, 4-hydroxy-2-[3-(2-tetrahydropyranyloxy)propyl] quinoline-N-oxide] | 1.6% | –
[O-][n+]1c(CCCCCCCCCCCO)c(Br)c(O)c2ccccc21 [Example 5, 3-bromo-4-hydroxy-2-(11-hydroxyundecyl) quinoline-N-oxide] | – | 220 nM
[O-][n+]1c(CCCOC2CCCCO2)cc(OCc2ccccc2)c2ccccc21 (stereo not shown) [Example 13, 4-benzyloxy-2-[3-(2-tetrahydropyranyloxy)propyl]quinoline-Noxide] | 11.5% | –
[O-][n+]1c(CCCCCCCCCCCOC2CCCCO2)cc(O)c2ccccc21 (stereo not shown) [Example 14, 4-hydroxy-2-[11-(2-tetrahydropyranyloxy)undecyl] quinoline-N-oxide] | – | 160 nM
O=C(O)CCCCCCCCCCc1cc(O)c2ccccc2[n+]1[O-] [Example 15, 4-hydroxy-2-(10-carboxydecyl) quinoline-Noxide] | – | 2700 nM
NCCCCCCCCCCCc1cc(O)c2ccccc2[n+]1[O-] [Example 16, 4-hydroxy-2-(11-aminoundecyl) quinoline-Noxide. hydrochloride] | – | 250 nM
COC(CCCCCCCCCCc1cc(O)c2ccccc2[n+]1[O-])OC [Example 19, 4-hydroxy-2-(11,11-dimethoxyundecyl) quinoline-Noxide] | – | 180 nM
